{"source": "patent US11452768B2", "about": "“Combination therapy with neoantigen vaccine” (The Broad Institute Inc., priority 2013, dated 2022)", "origin": "cited, not measured here", "key": {"[1]": {"system": "advanced hormone refractory prostate cancer", "conditions": "personalized vaccination combined with a low dose of estramustine"}, "ovarian carcinoma": {"system": "ovarian carcinoma", "conditions": "in combination with NY-ESO-1 peptide vaccine and Montanide"}, "[2]": {"system": "gene expression in whole blood", "conditions": "one single s.c. administration, 8 volunteers vs 4 placebo"}, "advanced melanoma": {"system": "advanced melanoma", "conditions": "nivolumab and ipilimumab combined, intravenous"}}}
{"compound": "C[C@]12CC[C@@H]3c4ccc(OC(=O)N(CCCl)CCCl)cc4CC[C@H]3[C@@H]1CC[C@@H]2O", "note": "[estramustine]", "values": [{"measurement": "Patients with a ≥50% decrease in serum prostate specific antigen (PSA)", "setting": "[1]", "value": 54, "unit": "%"}]}
{"compound": "Polyinosinic-Polycytidylic Acid-poly-L-lysine Carboxymethylcellulose [poly-ICLC]", "values": [{"measurement": "Patients showing induction of CD4+ and CD8+ T cell and antibody responses to the peptide", "setting": "ovarian carcinoma", "value": "> 90", "unit": "%"}, {"measurement": "Differentially expressed genes versus placebo", "setting": "[2]", "value": "up to 212 genes"}, {"measurement": "Fever (common adverse event, primary dose-limiting factor)", "setting": "high doses ≥6 mg/m2", "value": "above 40 °C"}, {"measurement": "Tolerability across all studies and spectrum of diseases", "setting": "low dose (1-2 mg total dose)", "value": "well-tolerated"}]}
{"compound": "ipilimumab: monoclonal antibody that binds and blocks CTLA-4", "values": [{"measurement": "Maximum doses associated with an acceptable level of adverse events", "setting": "advanced melanoma", "value": 3, "unit": "mg per kilogram"}]}
{"compound": "nivolumab: fully human IgG4 blocking monoclonal antibody against PD-1", "values": [{"measurement": "Maximum doses associated with an acceptable level of adverse events", "setting": "advanced melanoma", "value": 1, "unit": "mg per kilogram"}, {"measurement": "Objective responses", "setting": "tumor types; across tumor types", "value": "16-31%"}, {"measurement": "Durability of most responses", "setting": "tumor types; in vivo", "value": "> 1", "unit": "year"}, {"measurement": "Safety", "setting": "tumor types; in vivo", "value": "safe"}]}
